Data taken from patent publication US20240382629A1, “HETEROBIVALENT AND HOMOBIVALENT AGENTS TARGETING FIBROBLAST ACTIVATION PROTEIN ALPHA AND/OR PROSTATE-SPECIFIC MEMBRANE ANTIGEN” (The Johns Hopkins University, priority 2021, published 2024).

Test system: U87 tumor
Experiment: PET imaging and tissue biodistribution in U87 tumor-bearing mice
Format: in vivo, mouse
Design: Biodistribution: Saliv. Gland: unit not given here
Procedure: Cell uptake assays, flow cytometry, and IHC were performed as described previously. Banerjee et al., 2019; Nimmagadda et al., 2018. PET imaging and biodistribution Sequential PET imaging and biodistribution studies were conducted to quantify and validate PET imaging data. Briefly, tumor-bearing mice were administrated approximately 7.4 MBq of radiotracer in 150 μL saline via tail-vein injection. They were randomized into the indicated groups of 3-4 mice before radiotracer injection.
In Experiment 1, bilateral xenografts of U87 (right flank) and PSMA+ PC3 PIP (left flank) tumors were established in male NSG mice (n=3), which underwent imaging followed by biodistribution over 24 h. […] A biodistribution study was further conducted with U87 tumors at 2 h post-injection (n=3) to compare the tissue distribution properties of ^64Cu-FP-L1 and ^64Cu-FAPI-04.

[1] = untitled table, radiolabel and time not given
[2] = untitled table, radiolabel and time not given, in %ID/g
[3] = 2 h + 10 nmol Sri-06-98, dose 200 μCi, n=3, in %ID/g
[4] = 2 h, dose 200 μCi, n=3, in %ID/g
[5] = 4 h, dose 200 μCi, n=3, in %ID/g
[6] = head-to-head, 1 h, dose 20 μCi, n=5/group (FAPI-04 n = 3)

N#C[C@@H]1CCCN1C(=O)CNC(=O)c1ccnc2ccc(OCCCNC(=O)C(CCNC(=O)c3ccc(F)nc3)NC(=O)CN3CCN(CC(=O)O)CCN(CC(=O)O)CCN(CC(=O)O)CC3)cc12 (stereo partly shown) [SRI-08-15]
Biodistribution: Saliv. Gland [1]: 8.95 ± 0.98
Biodistribution: Bladder [2]: 1.67 ± 0.32
Biodistribution: Blood [2]: 3.92 ± 0.39
Biodistribution: Bone [2]: 5.97 ± 1.02
Biodistribution: Fat [2]: 0.92 ± 0.21
Biodistribution: Heart [2]: 1.97 ± 0.34
Biodistribution: Kidney [2]: 2.65 ± 0.27
Biodistribution: Lacrim Gland [2]: 8.01 ± 1.01
Biodistribution: Liver [2]: 2.73 ± 0.64
Biodistribution: Lung [2]: 2.90 ± 0.24
Biodistribution: Muscle [2]: 3.03 ± 0.63
Biodistribution: Pancreas [2]: 7.33 ± 1.73
Biodistribution: Sm Intest [2]: 3.85 ± 0.77
Biodistribution: Spleen [2]: 1.59 ± 0.57
Biodistribution: Stomach [2]: 1.42 ± 0.56
Biodistribution: U87 [2]: 20.41 ± 3.28

N#C[C@@H]1CCCN1C(=O)CNC(=O)c1ccnc2ccc(OCCCNC(=O)CCOCCOCCOCCNC(=O)C(CCNC(=O)c3ccc(F)nc3)NC(=O)CN3CCN(CC(=O)O)CCN(CC(=O)O)CCN(CC(=O)O)CC3)cc12 (stereo partly shown) [SRI-08-27]
Biodistribution: Saliv. Gland [1]: 6.40 ± 1.30
Biodistribution: Bladder [2]: 1.18 ± 0.13
Biodistribution: Blood [2]: 12.65 ± 2.31
Biodistribution: Bone [2]: 2.83 ± 0.36
Biodistribution: Fat [2]: 0.45 ± 0.16
Biodistribution: Heart [2]: 5.39 ± 1.11
Biodistribution: Kidney [2]: 3.98 ± 0.66
Biodistribution: Lacrim Gland [2]: 4.62 ± 1.02
Biodistribution: Liver [2]: 5.15 ± 0.75
Biodistribution: Lung [2]: 7.76 ± 1.31
Biodistribution: Muscle [2]: 1.55 ± 0.43
Biodistribution: Pancreas [2]: 7.20 ± 3.00
Biodistribution: Sm Intest [2]: 6.28 ± 2.63
Biodistribution: Spleen [2]: 2.59 ± 0.49
Biodistribution: Stomach [2]: 1.83 ± 0.66
Biodistribution: U87 [2]: 6.56 ± 1.76

N#CC1CCCN1C(=O)CNC(=O)c1ccnc2ccc(OCCCNC(=O)CCc3cn(CC[C@H](NC(=O)c4ccc(F)nc4)C(=O)NCCNC(=O)CN4CCN(CC(=O)O)CCN(CC(=O)O)CCN(CC(=O)O)CC4)nn3)cc12 (stereo partly shown) [SRI-07-56]
Biodistribution: Saliv. Gland [1]: 7.59 ± 3.44
Biodistribution: Bladder [2]: 7.14 ± 3.21
Biodistribution: Blood [2]: 20.47 ± 8.29
Biodistribution: Bone [2]: 4.47 ± 1.71
Biodistribution: Fat [2]: 0.49 ± 0.23
Biodistribution: Heart [2]: 7.16 ± 3.22
Biodistribution: Kidney [2]: 5.16 ± 2.02
Biodistribution: Lacrim Gland [2]: 4.32 ± 1.56
Biodistribution: Liver [2]: 6.87 ± 2.54
Biodistribution: Lung [2]: 10.70 ± 4.41
Biodistribution: Muscle [2]: 2.06 ± 0.95
Biodistribution: Pancreas [2]: 10.62 ± 3.62
Biodistribution: Sm Intest [2]: 9.55 ± 3.91
Biodistribution: Spleen [2]: 4.21 ± 1.74
Biodistribution: Stomach [2]: 3.73 ± 1.63
Biodistribution: U87 [2]: 5.67 ± 2.42

N#C[C@@H]1CCCN1C(=O)CNC(=O)c1ccnc2ccc(OCCCNC(=O)CCc3cn(CCCC[C@H](NC(=O)CN4CCN(CC(=O)O)CCN(CC(=O)O)CC4)C(=O)NCCCOc4ccc5nccc(C(=O)NCC(=O)N6CCC[C@H]6C#N)c5c4)nn3)cc12 [^64Cu-Sri-06-98, metal not drawn]
Biodistribution: Bladder [3]: 5.61 ± 7.96
Biodistribution: Blood [3]: 0.27 ± 0.08
Biodistribution: Bone [3]: 0.59 ± 0.65
Biodistribution: Fat [3]: 0.07 ± 0.02
Biodistribution: Heart [3]: 0.17 ± 0.01
Biodistribution: Kidney [3]: 1.57 ± 0.00
Biodistribution: Lacrimal gland [3]: 0.16 ± 0.02
Biodistribution: Liver [3]: 0.68 ± 0.16
Biodistribution: Lung [3]: 0.49 ± 0.01
Biodistribution: Muscle [3]: 0.09 ± 0.02
Biodistribution: Pancreas [3]: 0.21 ± 0.04
Biodistribution: Salivary Glands [3]: 0.34 ± 0.02
Biodistribution: Small Intestine [3]: 0.54 ± 0.08
Biodistribution: Spleen [3]: 0.25 ± 0.01
Biodistribution: Stomach [3]: 0.31 ± 0.02
Biodistribution: U87 [3]: 2.70 ± 1.00
Biodistribution: Bladder [4]: 1.63 ± 0.23
Biodistribution: Blood [4]: 3.49 ± 0.18
Biodistribution: Bone [4]: 2.91 ± 0.36
Biodistribution: Fat [4]: 0.47 ± 0.02
Biodistribution: Heart [4]: 3.70 ± 0.22
Biodistribution: Kidney [4]: 2.00 ± 0.52
Biodistribution: Lacrimal gland [4]: 5.07 ± 2.20
Biodistribution: Liver [4]: 2.80 ± 0.31
Biodistribution: Lung [4]: 2.62 ± 0.11
Biodistribution: Muscle [4]: 2.46 ± 0.20
Biodistribution: Pancreas [4]: 4.59 ± 2.38
Biodistribution: Salivary Glands [4]: 8.88 ± 1.37
Biodistribution: Small Intestine [4]: 2.97 ± 0.33
Biodistribution: Spleen [4]: 1.51 ± 0.14
Biodistribution: Stomach [4]: 2.09 ± 1.00
Biodistribution: U87 [4]: 7.64 ± 2.12
Biodistribution: Bladder [5]: 5.56 ± 1.53
Biodistribution: Blood [5]: 2.54 ± 0.37
Biodistribution: Bone [5]: 2.69 ± 0.14
Biodistribution: Fat [5]: 0.50 ± 0.12
Biodistribution: Heart [5]: 2.40 ± 0.12
Biodistribution: Kidney [5]: 1.67 ± 0.03
Biodistribution: Lacrimal gland [5]: 4.54 ± 0.44
Biodistribution: Liver [5]: 2.68 ± 0.08
Biodistribution: Lung [5]: 2.04 ± 0.10
Biodistribution: Muscle [5]: 2.13 ± 0.14
Biodistribution: Pancreas [5]: 4.54 ± 0.62
Biodistribution: Salivary Glands [5]: 5.92 ± 0.57
Biodistribution: Small Intestine [5]: 2.69 ± 0.42
Biodistribution: Spleen [5]: 1.14 ± 0.16
Biodistribution: Stomach [5]: 1.60 ± 0.36
Biodistribution: U87 [5]: 11.15 ± 1.49

N#CC1CCCN1C(=O)CNC(=O)c1ccnc2ccc(OCCCNC(=O)CCc3cn(CCCC[C@H](NC(=O)c4ccc(F)nc4)C(=O)NCCNC(=O)CN4CCN(CC(=O)O)CCN(CC(=O)O)CCN(CC(=O)O)CC4)nn3)cc12 (stereo partly shown) [SRI-08-35]
Biodistribution: Saliv. Gland [1]: 7.49 ± 1.17
Biodistribution: Bladder [2]: 1.59 ± 0.32
Biodistribution: Blood [2]: 15.40 ± 1.08
Biodistribution: Bone [2]: 3.75 ± 0.43
Biodistribution: Fat [2]: 0.56 ± 0.20
Biodistribution: Heart [2]: 7.04 ± 0.93
Biodistribution: Kidney [2]: 5.47 ± 0.73
Biodistribution: Lacrim Gland [2]: 5.27 ± 1.52
Biodistribution: Liver [2]: 6.13 ± 0.67
Biodistribution: Lung [2]: 9.40 ± 1.61
Biodistribution: Muscle [2]: 1.94 ± 0.74
Biodistribution: Pancreas [2]: 10.46 ± 2.88
Biodistribution: Sm Intest [2]: 8.20 ± 2.20
Biodistribution: Spleen [2]: 3.08 ± 0.27
Biodistribution: Stomach [2]: 2.17 ± 0.30
Biodistribution: U87 [2]: 7.84 ± 1.95

N#C[C@@H]1CCCN1C(=O)CNC(=O)c1ccnc2ccc(OCCCN3CC4CN(C(=O)C(CCNC(=O)c5ccc(F)nc5)NC(=O)CN5CCN(CC(=O)O)CCN(CC(=O)O)CCN(CC(=O)O)CC5)CC4C3)cc12 (stereo partly shown) [SRI-08-37]
Biodistribution: Saliv. Gland [1]: 11.70 ± 1.32
Biodistribution: Bladder [2]: 4.28 ± 4.14
Biodistribution: Blood [2]: 4.59 ± 0.50
Biodistribution: Bone [2]: 6.37 ± 0.98
Biodistribution: Fat [2]: 1.04 ± 0.55
Biodistribution: Heart [2]: 2.24 ± 1.02
Biodistribution: Kidney [2]: 2.82 ± 0.06
Biodistribution: Lacrim Gland [2]: 9.11 ± 2.71
Biodistribution: Liver [2]: 2.02 ± 0.13
Biodistribution: Lung [2]: 2.96 ± 0.38
Biodistribution: Muscle [2]: 2.74 ± 0.18
Biodistribution: Pancreas [2]: 6.76 ± 1.47
Biodistribution: Sm Intest [2]: 3.36 ± 0.76
Biodistribution: Spleen [2]: 1.45 ± 0.17
Biodistribution: Stomach [2]: 1.85 ± 0.19
Biodistribution: U87 [2]: 20.43 ± 1.73

N#C[C@@H]1CCCN1C(=O)CNC(=O)c1ccnc2ccc(OCCCNC(=O)CCc3cn(CCCC[C@H](NC(=O)CN4CCN(CC(=O)O)CCN(CC(=O)O)CC4)C(=O)NCCCOc4ccc5nccc(C(=O)NCC(=O)N6CCC[C@H]6C#N)c5c4)nn3)cc12 [^64Cu-FAPI-74, metal not drawn, reference compound]
Biodistribution: Bladder [6]: 3.51 ± 0.30 % ID/g
Biodistribution: Blood [6]: 2.48 ± 0.87 % ID/g
Biodistribution: Bone [6]: 7.94 ± 0.78 % ID/g
Biodistribution: Fat [6]: 0.48 ± 0.43 % ID/g
Biodistribution: Heart [6]: 1.16 ± 0.28 % ID/g
Biodistribution: Kidney [6]: 3.83 ± 2.31 % ID/g
Biodistribution: Lacrimal gland [6]: 5.17 ± 1.51 % ID/g
Biodistribution: Liver [6]: 1.69 ± 0.83 % ID/g
Biodistribution: Lung [6]: 2.48 ± 0.64 % ID/g
Biodistribution: Muscle [6]: 2.05 ± 0.84 % ID/g
Biodistribution: Pancreas [6]: 2.09 ± 1.12 % ID/g
Biodistribution: Salivary Gland [6]: 4.42 ± 0.55 % ID/g
Biodistribution: Small Intestine [6]: 3.80 ± 2.06 % ID/g
Biodistribution: Spleen [6]: 1.23 ± 0.41 % ID/g
Biodistribution: Stomach [6]: 1.29 ± 0.45 % ID/g
Biodistribution: U87 [6]: 11.42 ± 1.11 % ID/g

N#CC1CCCN1C(=O)CNC(=O)c1ccnc2ccc(OCCCN3CC4CN(C(=O)CN5CCN(CC(=O)O)CCN(CC(=O)O)CC5)CC4C3)cc12 (stereo not shown) [^64Cu-Sri-07-86, metal not drawn]
Biodistribution: Bladder [6]: 5.55 ± 4.26 % ID/g
Biodistribution: Blood [6]: 2.54 ± 0.90 % ID/g
Biodistribution: Bone [6]: 2.84 ± 0.83 % ID/g
Biodistribution: Fat [6]: 0.31 ± 0.08 % ID/g
Biodistribution: Heart [6]: 1.04 ± 0.28 % ID/g
Biodistribution: Kidney [6]: 4.00 ± 1.28 % ID/g
Biodistribution: Lacrimal gland [6]: 3.53 ± 2.93 % ID/g
Biodistribution: Liver [6]: 1.97 ± 0.36 % ID/g
Biodistribution: Lung [6]: 2.02 ± 0.93 % ID/g
Biodistribution: Muscle [6]: 1.65 ± 1.10 % ID/g
Biodistribution: Pancreas [6]: 1.89 ± 0.57 % ID/g
Biodistribution: Salivary Gland [6]: 2.77 ± 0.53 % ID/g
Biodistribution: Small Intestine [6]: 3.15 ± 1.34 % ID/g
Biodistribution: Spleen [6]: 1.13 ± 0.42 % ID/g
Biodistribution: Stomach [6]: 1.26 ± 0.45 % ID/g
Biodistribution: U87 [6]: 6.55 ± 1.41 % ID/g
